Several values for one entry are separate records, joined by “and”; a condition that tells them apart may be missing. Equal values may be shown once.
Assays:
[1] = Metabolic stability in rat liver microsomes (RLMs); conditions: rat, microsomes
Experimental: Metabolic stability was measured by incubating the peptides (10 μM) with RLMs. Peptides to test were dissolved in DMSO (4 mM), and 1 μl of the resulting solution was added to 365 μl of 0.1 M sodium phosphate buffer (pH 7.4). The solution was pre-warmed at 37 °C for 5 min before starting the reaction by addition of 24 μl of NADPH cofactor solution (22 mM) and 11 μl of RLMs (20 mg ml^−1 protein concentration; Thermo Fisher Scientific, RTMCPL). […] Samples were vortexed, sonicated for 5 min and centrifuged at 16,000g for 10 min. Supernatant was analyzed by LC–MS to quantify the disappearance of the compound and formation of degradation products.

[2] = Peptide stability in simulated intestinal fluid (SIF); assay type: in vitro ADME, porcine; conditions: simulated gi fluid; 8 h, 37 °C, pH 6.8; read-out: Proteolytic stability: SIF (8 h) % remaining
Experimental: (§1) Simulated gastric and intestinal fluids were prepared according to the States Pharmacopeia specifications (Test Solutions, United States Pharmacopeia 35, NF 30, 2012). SGF: 0.2 g of sodium chloride was dissolved in 50 ml of water, and the pH was adjusted to 1.2 by addition of 0.7 ml of 10 M hydrochloric acid. Then, 0.32 g of porcine pepsin (Sigma-Aldrich, P7125) was dissolved under gentle agitation, and the volume was filled up to 100 ml with Milli-Q water. SIF: 0.68 g of monobasic potassium phosphate was dissolved in 25 ml of Milli-Q water, and the pH was adjusted to 6.8 by adding 7.7 ml of a 0.2 M sodium hydroxide solution. Next, 1 g of porcine pancreatin (Sigma-Aldrich, P3292) was added under gentle agitation, and the volume was adjusted to 100 ml with Milli-Q water to afford a fine suspension. To test the stability in simulated gastrointestinal fluids, 396 μl of SGF or SIF was pre-heated at 37 °C for 10 min, and 4 μl of a 1 mM peptide solution in DMSO was added. […] Supernatant was analyzed by LC–MS to measure the peptide concentrations at the different timepoints. Residual peptide was calculated by normalizing the concentrations measured at T1 to T0.

porcine pancreatin = assay: as above; assay type: in vitro ADME; conditions: after 8 h vs 0 h (TIC); average of R1-R3
Experimental: as §1

[3] = Passive artificial membrane permeability (PAMPA)
porcine pepsin = biological target: T1, porcine pepsin (Sus scrofa, UniProt P00791); assay: Peptide stability in simulated gastric fluid (SGF); assay type: in vitro ADME
T1 construct: 0.32 g of porcine pepsin (Sigma-Aldrich, P7125) was dissolved under gentle agitation; purchased Sigma-Aldrich P7125
Experimental: as §1

rat α-thrombin = biological target: T2, rat α-thrombin (Rattus norvegicus, UniProt P18292); assay: Protease inhibition, Ki for rat α-thrombin (fluorogenic substrate Z-Gly-Gly-Arg-AMC); assay type: biochemical; conditions: replicates R1-R3
T2 construct: rat α-thrombin (Molecular Innovations) were used at final concentrations of 2 nM and 3 nM; purchased Molecular Innovations
Procedure, shortened: (§2)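 Inhibition was measured as AMC fluorescence from 50 μM substrate, monitored for 30 min at 25 °C, relative to a peptide-free control. Human and rat enzymes were present at 2 nM and 3 nM final, respectively, in 50 mM Tris-HCl pH 7.4, 150 mM NaCl, 10 mM MgCl2, 1 mM CaCl2. Ki derives from fitted IC50 via Cheng–Prusoff.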

human α-thrombin = human α-thrombin (Homo sapiens, UniProt P00734); assay: Protease inhibition, Ki for human α-thrombin (fluorogenic substrate Z-Gly-Gly-Arg-AMC); assay type: biochemical; conditions: replicates R1-R3
Procedure, shortened: as §2

[4] = peptide 1.33E+02 uM, slope of proteolytic substrate cleavage over time

T1 sequence (P00791 60-385): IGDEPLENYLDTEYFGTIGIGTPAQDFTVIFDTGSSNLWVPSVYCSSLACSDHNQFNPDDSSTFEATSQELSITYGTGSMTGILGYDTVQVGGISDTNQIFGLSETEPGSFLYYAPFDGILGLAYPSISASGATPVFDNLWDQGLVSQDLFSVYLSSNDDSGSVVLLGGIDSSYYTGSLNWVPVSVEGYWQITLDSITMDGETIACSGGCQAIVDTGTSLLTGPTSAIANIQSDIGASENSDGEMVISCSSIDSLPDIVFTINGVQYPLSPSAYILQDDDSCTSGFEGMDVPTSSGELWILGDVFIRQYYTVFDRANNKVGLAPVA

## O=C1CC2CCN(CC2)C(=O)[C@H](Cc2ccccc2)NC(=O)[C@@H](NC(=O)c2ccc(Cl)s2)CSCc2cccc(n2)CSCCN1 [compound 15]
[1]; CL (ul/min/mg protein) R1, RLM CL, replicate R1
  microsomal CLint: 87.8 µL/min/mg
[1]; CL (ul/min/mg protein) R2, RLM CL, replicate R2
  microsomal CLint: 76.3 µL/min/mg
[1]; CL (ul/min/mg protein) R3, RLM CL, replicate R3
  microsomal CLint: 81.9 µL/min/mg
[1]; Half Life (min) R1, RLM metabolic stability, replicate R1, 0-60 min
  half-life: 15.8 min
[1]; Half Life (min) R2, RLM metabolic stability, replicate R2, 0-60 min
  half-life: 18.2 min
[1]; Half Life (min) R3, RLM metabolic stability, replicate R3, 0-60 min
  half-life: 16.9 min
[1]; Metabolic stability: Half life T1/2 (min), RLMs, mean and SD, three measurements
  half-life: 17 ± 1 min
[1]; Metabolic stability: RLM CL (ul/min/mg), RLMs, mean and SD, three measurements
  microsomal CLint: 82 ± 5 µL/min/mg
[2]
  remaining at 8 h: 88 ± 18%
Porcine pancreatin
  SIF stability, Residual peptide Average: 87.61
[3]; 50 μM, 12–18 h, acceptor concentration relative to equilibrium
  PAMPA permeability: % permeability: 20 ± 10%
[3]; PAMPA, pH 7.4
  Papp at 50 μM: 1.35 ×10⁻⁶ cm/s
[3]; PAMPA, average of R1-R3
  Permeability% Average: 20.3%
[3]; PAMPA, replicate R1, TIC of top well sample relative to sample at theoretical equilibrium
  Permeability% R1: 29.62%
[3]; PAMPA, replicate R3, TIC of top well sample relative to sample at theoretical equilibrium
  Permeability% R3: 22.19%
Porcine pepsin; after 8 h vs 0 h (TIC), average of R1-R3
  SGF stability, Residual peptide Average: 98.62
Porcine pepsin; after 8 h vs 0 h (TIC), single replicates R1-R3
  SGF stability, Residual peptide: 100.84 and 98.47 and 96.53
Porcine pepsin; simulated gi fluid, 8 h, 37 °C, pH 1.2, read-out: Proteolytic stability: SGF (8 h) % remaining
  remaining at 8 h: 99 ± 2%
Rat α-thrombin; [4]
  Rat alpha thrombin inhibition, slope normalized to DMSO: 1.8 and 3.0 and 9.6
Rat α-thrombin; peptide 1.67E+01 uM
  Rat alpha thrombin inhibition, slope normalized to DMSO: 7.1 and 6.4 and 13.3
Rat α-thrombin; peptide 2.08E+00 uM
  Rat alpha thrombin inhibition, slope normalized to DMSO: 34.4 and 33.4 and 32.9
Rat α-thrombin; peptide 3.33E+01 uM
  Rat alpha thrombin inhibition, slope normalized to DMSO: 4.1 (2×) and 10.8
Rat α-thrombin; peptide 4.17E+00 uM
  Rat alpha thrombin inhibition, slope normalized to DMSO: 21.9 and 19.6 and 23.7
Rat α-thrombin; peptide 6.67E+01 uM
  Rat alpha thrombin inhibition, slope normalized to DMSO: 2.7 and 2.8 and 9.5
Rat α-thrombin; peptide 8.33E+00 uM
  Rat alpha thrombin inhibition, slope normalized to DMSO: 12.5 and 11.7 and 18.6
Human α-thrombin; peptide 1.02E-03 uM
  Human alpha thrombin inhibition, slope normalized to DMSO: 100.6 and 98.3 and 99.0
Human α-thrombin; peptide 1.04E+00 uM
  Human alpha thrombin inhibition, slope normalized to DMSO: 68.1 and 68.7 and 68.9
Human α-thrombin; peptide 1.27E-04 uM
  Human alpha thrombin inhibition, slope normalized to DMSO: 101.1 and 97.6 and 104.9
Human α-thrombin; peptide 1.30E-01 uM
  Human alpha thrombin inhibition, slope normalized to DMSO: 90.7 and 100.7 and 97.5
Human α-thrombin; [4]
  Human alpha thrombin inhibition, slope normalized to DMSO: 4.8 and 5.5 and 1.6
Human α-thrombin; peptide 1.63E-02 uM
  Human alpha thrombin inhibition, slope normalized to DMSO: 110.6 and 96.8 and 100.1
Human α-thrombin; peptide 1.67E+01 uM
  Human alpha thrombin inhibition, slope normalized to DMSO: 12.1 and 12.4 and 14.6
Human α-thrombin; peptide 2.03E-03 uM
  Human alpha thrombin inhibition, slope normalized to DMSO: 101.2 and 99.3 and 100.0
Human α-thrombin; peptide 2.08E+00 uM
  Human alpha thrombin inhibition, slope normalized to DMSO: 65.0 and 52.9 and 51.5
Human α-thrombin; peptide 2.54E-04 uM
  Human alpha thrombin inhibition, slope normalized to DMSO: 99.3 and 97.7 and 101.2
Human α-thrombin; peptide 2.60E-01 uM
  Human alpha thrombin inhibition, slope normalized to DMSO: 95.0 and 89.4 and 94.7
Human α-thrombin; peptide 3.18E-05 uM
  Human alpha thrombin inhibition, slope normalized to DMSO: 97.8 and 94.7 and 100.8
Human α-thrombin; peptide 3.26E-02 uM
  Human alpha thrombin inhibition, slope normalized to DMSO: 94.1 and 101.2 and 106.3
Human α-thrombin; peptide 3.33E+01 uM
  Human alpha thrombin inhibition, slope normalized to DMSO: 8.2 and 10.1 and 12.2
Human α-thrombin; peptide 4.07E-03 uM
  Human alpha thrombin inhibition, slope normalized to DMSO: 102.2 and 130.5 and 101.9
Human α-thrombin; peptide 4.17E+00 uM
  Human alpha thrombin inhibition, slope normalized to DMSO: 34.4 and 33.3 and 35.3
Human α-thrombin; peptide 5.09E-04 uM
  Human alpha thrombin inhibition, slope normalized to DMSO: 99.7 and 107.7 and 101.3
Human α-thrombin; peptide 5.21E-01 uM
  Human alpha thrombin inhibition, slope normalized to DMSO: 82.1 and 87.9 and 83.3
Human α-thrombin; peptide 6.36E-05 uM
  Human alpha thrombin inhibition, slope normalized to DMSO: 100.1 and 97.7 and 104.2
Human α-thrombin; peptide 6.51E-02 uM
  Human alpha thrombin inhibition, slope normalized to DMSO: 100.7 and 90.2 and 100.6
Human α-thrombin; peptide 6.67E+01 uM
  Human alpha thrombin inhibition, slope normalized to DMSO: 5.7 and 5.6 and 9.1
Human α-thrombin; peptide 8.14E-03 uM
  Human alpha thrombin inhibition, slope normalized to DMSO: 98.8 and 99.9 and 103.6
Human α-thrombin; peptide 8.33E+00 uM
  Human alpha thrombin inhibition, slope normalized to DMSO: 23.8 and 18.1 and 21.3
